Results published in PubChem BioAssay (NCI).
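Tested at 5 concentrations; 48 h exposure; 96-well plates; endpoints linearly interpolated, else capped at highest concentration. TGI is the concentration that stops growth completely.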

System: HOP-62 NSCLC
Experiment: DTP human tumour cell line panel, 48 h

| SMILES | TGI [µM] |
| --- | --- |
| Nc1nc(N)c2[nH]c(CNc3ccc(C(=O)O)cc3)nc2n1 | > 100 |
| CNn1c(-c2ccccc2)n[nH]c1=O | > 100 |
| O=c1[nH]c(-c2ccc3ccccc3c2)nc2ccccc12 | 50.2 |
| COc1ccc(CC2c3cc(Oc4cc(CC5c6cc(OC)c(OC)cc6CCN5C)ccc4O)c(OC)cc3CCN2C)cc1 (centres undefined) | 14.9 |
| COc1ccc(C(C)NNC(=O)c2ccncc2)c(OC)c1 (centres undefined) | > 100 |
| CC(C)(C)OC(=O)NCC(O)CNC(=O)OC(C)(C)C | > 100 |
| O=[N+]([O-])c1cc2oc(COc3ccccc3)nc2cc1Cl | 50.6 |
| CC(C)(C)c1cc(C(P(=O)(c2ccccc2)c2ccccc2)P(=O)(c2ccccc2)c2ccccc2)cc(C(C)(C)C)c1O | 5.13 |
| CCc1nc(N)nc(N)c1-c1ccc(Cl)c(Cl)c1 | > 100 |
| NS(=O)(=O)c1nn2c(Br)c(-c3ccccc3)nc2s1 | 29.5 |
| CCN(CC)c1c(N(CC)CC)c(=O)c1=O | > 77.3 |
| CN(C)Cc1cc(C(=O)/C=C/c2ccc(Cl)cc2)cc(CN(C)C)c1O | 15.8 |
| COc1cc(-c2cc(=O)c3c(OC)c(OC)c(OC)c(OC)c3o2)c(OC)c(OC)c1OC | > 100 |
| COc1nc(C(=O)NNC(=O)c2nc(OC)c3ccccc3c2-c2ccccc2)c(-c2ccccc2)c2ccccc12 | > 100 |
| COc1cc(/C=C2\CCC(C)C3C2=NN(C(C)=O)C3c2cc(OC)c(OC)c(OC)c2)cc(OC)c1OC (centres undefined) | > 100 |
| NC(=O)C(N)Cc1ccc(O)cn1 (centres undefined) | > 100 |
| COC(=O)C(C)(NC(=O)C(CC(=O)OC(C)(C)C)NC(=O)OC(C)(C)C)c1ccccc1 (centres undefined) | > 100 |
| COc1ccc2nc3ccc(OC)cc3c(S(=O)CCCl)c2c1 (centres undefined) | 36.8 |

System: HS 578T breast
Experiment: DTP human tumour cell line panel, 48 h

| SMILES | TGI [µM] |
| --- | --- |
| O=Cc1ccc2c(c1)CC1(C2)Cc2ccc3c(c2C1)CCC3 (centres undefined) | 21.5 |
| C=C(C)C(CC=C(C)C)CC12CC(CC=C(C)C)C(C)(C)C(CC=C(C)C)(C(=O)C(Cc3ccc(O)c(O)c3)=C1O)C2=O (centres undefined) | > 100 |
| CCC(=O)NC(Nc1cccc(F)c1C)(C(F)(F)F)C(F)(F)F | > 100 |
| CCCCCN=Cc1c(O)c(O)c(C(C)C)c2cc(C)c(-c3c(C)cc4c(C(C)C)c(O)c(O)c(C=NCCCCC)c4c3O)c(O)c12 | > 100 |
| CCc1nc(N)nc(N)c1-c1ccc2nn(-c3ccccc3)[n+]([O-])c2c1 | 52.3 |
| O=C(O)/C=N\Nc1nc2ccccc2[nH]1 | > 100 |
| Nc1nc(N)c2[nH]c(CNc3ccc(C(=O)O)cc3)nc2n1 | > 100 |
| CNn1c(-c2ccccc2)n[nH]c1=O | > 100 |
| O=c1[nH]c(-c2ccc3ccccc3c2)nc2ccccc12 | > 100 |
| COc1ccc(CC2c3cc(Oc4cc(CC5c6cc(OC)c(OC)cc6CCN5C)ccc4O)c(OC)cc3CCN2C)cc1 (centres undefined) | 19.3 |
| COc1ccc(C(C)NNC(=O)c2ccncc2)c(OC)c1 (centres undefined) | > 100 |
| CC(C)(C)OC(=O)NCC(O)CNC(=O)OC(C)(C)C | > 100 |
| O=[N+]([O-])c1cc2oc(COc3ccccc3)nc2cc1Cl | > 100 |
| CC(C)(C)c1cc(C(P(=O)(c2ccccc2)c2ccccc2)P(=O)(c2ccccc2)c2ccccc2)cc(C(C)(C)C)c1O | 6.27 |
| CCc1nc(N)nc(N)c1-c1ccc(Cl)c(Cl)c1 | > 100 |
| NS(=O)(=O)c1nn2c(Br)c(-c3ccccc3)nc2s1 | 30.7 |
| CCN(CC)c1c(N(CC)CC)c(=O)c1=O | 59.9 |
| CN(C)Cc1cc(C(=O)/C=C/c2ccc(Cl)cc2)cc(CN(C)C)c1O | 49.3 |
| COc1cc(-c2cc(=O)c3c(OC)c(OC)c(OC)c(OC)c3o2)c(OC)c(OC)c1OC | > 100 |
| COc1nc(C(=O)NNC(=O)c2nc(OC)c3ccccc3c2-c2ccccc2)c(-c2ccccc2)c2ccccc12 | > 100 |
| COc1cc(/C=C2\CCC(C)C3C2=NN(C(C)=O)C3c2cc(OC)c(OC)c(OC)c2)cc(OC)c1OC (centres undefined) | > 92.2 |
| NC(=O)C(N)Cc1ccc(O)cn1 (centres undefined) | > 100 |
| COC(=O)C(C)(NC(=O)C(CC(=O)OC(C)(C)C)NC(=O)OC(C)(C)C)c1ccccc1 (centres undefined) | > 100 |
| COc1ccc2nc3ccc(OC)cc3c(S(=O)CCCl)c2c1 (centres undefined) | 6.02 |

System: HT29 colon
Experiment: DTP human tumour cell line panel, 48 h

| SMILES | TGI [µM] |
| --- | --- |
| O=Cc1ccc2c(c1)CC1(C2)Cc2ccc3c(c2C1)CCC3 (centres undefined) | 36.8 |
| C=C(C)C(CC=C(C)C)CC12CC(CC=C(C)C)C(C)(C)C(CC=C(C)C)(C(=O)C(Cc3ccc(O)c(O)c3)=C1O)C2=O (centres undefined) | > 100 |
| CCC(=O)NC(Nc1cccc(F)c1C)(C(F)(F)F)C(F)(F)F | > 100 |
| CCCCCN=Cc1c(O)c(O)c(C(C)C)c2cc(C)c(-c3c(C)cc4c(C(C)C)c(O)c(O)c(C=NCCCCC)c4c3O)c(O)c12 | > 100 |
| CCc1nc(N)nc(N)c1-c1ccc2nn(-c3ccccc3)[n+]([O-])c2c1 | 20.2 |
| O=C(O)/C=N\Nc1nc2ccccc2[nH]1 | > 100 |
| Nc1nc(N)c2[nH]c(CNc3ccc(C(=O)O)cc3)nc2n1 | > 100 |
| CNn1c(-c2ccccc2)n[nH]c1=O | > 100 |
| O=c1[nH]c(-c2ccc3ccccc3c2)nc2ccccc12 | > 100 |
| COc1ccc(CC2c3cc(Oc4cc(CC5c6cc(OC)c(OC)cc6CCN5C)ccc4O)c(OC)cc3CCN2C)cc1 (centres undefined) | 8.15 |
| COc1ccc(C(C)NNC(=O)c2ccncc2)c(OC)c1 (centres undefined) | > 100 |
| O=[N+]([O-])c1cc2oc(COc3ccccc3)nc2cc1Cl | > 100 |
| CC(C)(C)c1cc(C(P(=O)(c2ccccc2)c2ccccc2)P(=O)(c2ccccc2)c2ccccc2)cc(C(C)(C)C)c1O | 4.39 |
| CCc1nc(N)nc(N)c1-c1ccc(Cl)c(Cl)c1 | > 100 |
| NS(=O)(=O)c1nn2c(Br)c(-c3ccccc3)nc2s1 | 8.4 |
| CCN(CC)c1c(N(CC)CC)c(=O)c1=O | 5.96 |
| CN(C)Cc1cc(C(=O)/C=C/c2ccc(Cl)cc2)cc(CN(C)C)c1O | 18.6 |
